Consider 25 compounds from patent publication US9757399B2, “Butyrylcholinesterase inhibitors” (priority 2006, dated 2017).

The target in assay [1] is T1, butyrylcholinesterase (Equus caballus, UniProt P81908).
T1 construct: butyrylcholinesterase (from horse serum); purchased Sigma; host or cells: horse serum (natural source)
The assay can be described thus: biochemical. The following applies: for Change in Absorbance at 412 nm/Minute (Normalized): 10^−7M, normalized to 2-chlorophenyl-di-n-butyl phosphate set as 1.0; for Change in Absorbance at 412 nm/Minute (Not Normalized): compound final concentration 10^−7M; for inhibition at 100 µM: read-out: % inhibition of BuChase. The class given is biochemical, horse. As for the experimental part: (§1) Cholinesterase activity measurements were performed essentially according to the method of Ellman (Biochemical Pharmacology 7:88-90, 1961). The composition of the assay mixture was 0.1 M sodium phosphate, pH 7.5, 0.033 M DTNB, 0.001 M MgCl2, and 100 μg/mL of BSA containing appropriate amounts of substrate and inhibitor. Each assay was initiated by the addition of substrate and the activity quantified by measuring the formation of the thionitrobenzoate anion at 412 nm at 37° C. Methanol used to solubilize the dialkyl phenyl phosphates [1% (v/v) final concentration] had no inhibitory effect on either enzyme.
. The results were obtained by pre-incubating the enzyme with the compound (final concentration 10^−7M) for various periods of time and measuring the remaining enzyme activity. The results are shown as the change in absorbance at 412 nm/minute. In order to simplify the results from all the compounds, the enzyme activities were normalized to 2-chlorophenyl-di-n-butyl phosphate which was set as 1.0. Since two different preparations of enzyme were used, the normalization procedure would adjust for any differences in the amount of enzyme. […]. In other cases, the compound's inhibitory activity is not as strong and assay conditions were modified to increase the inhibitor concentration.
Table 4: Rates of inactivation of butyrylcholinesterase by exemplary compounds: Change in Absorbance at 412 nm/Minute. (ND=No Data)

Another assay concerns the target T2, acetylcholinesterase (Electrophorus electricus, UniProt O42275).
T2 construct: Acetylcholinesterase (from electric eel); purchased Sigma; host or cells: electric eel (natural source)
The assay can be described thus: Native gel electrophoresis activity stain, AcChase. It is filed as biochemical, electric eel. As to conditions: pre-incubation with inhibitor. As for the experimental part: (§2) Enzyme activity was also measured by native gel electrophoresis. For cholinesterase activity, proteins (10 μg of both acetylcholinesterase and butyrylcholinesterase) were fractionated on Novex precast 10% Tris glycine gels (Invitrogen). Enzyme activity was detected by first incubating the gels in a solution of 5 mM substrate then staining with a solution of copper sulfate/potassium ferricyanide.
(§3) Using native gel electrophoresis, both AcChase and BuChase activity was detected. Pre-incubation of AcChase with di-ethyl 2-chlorophenyl phosphate had no effect on AcChase activity (FIG. 1).

Assay [2] concerns the target T1, butyrylcholinesterase. Description: Native gel electrophoresis activity stain, BuChase. The class given is biochemical, horse. The following applies: pre-incubation with inhibitor. As for the experimental part: as §2, §3
Assay [3] has as its target T3, Acetylcholinesterase (from electric eel) (Electrophorus electricus, UniProt O42275).
T3 construct: Acetylcholinesterase (from electric eel); purchased Sigma; host or cells: electric eel (natural source)
The assay can be described thus: Acetylcholinesterase activity, Ellman assay after pre-incubation with inhibitor. The class given is biochemical. As to conditions: 100 μM compound, 60 minutes at 25° C. As for the experimental part:
(§4) Acetylcholinesterase (from electric eel), butyrylcholinesterase (from horse serum), DTNB, butyrylthiocholine, acetylthiocholine, and BSA were purchased from Sigma. The dialkyl 2-chlorophenyl (and 4-chlorophenyl) phosphates were solubilized in reagent grade methanol.
as §1
(§5) Butyrylcholinesterase was pre-incubated at room temperature with inhibitor in the assay cocktail minus substrate for varying periods of time at 25° C. Substrate was then added and the activity measured as described above. The relative rates of enzyme inactivation were determined by plotting enzyme activity versus time of pre-incubation with inhibitor. Results were expressed as the rate constant for the rate of enzyme inactivation. In the case of AcChase, results were expressed as the % of activity remaining relative to the enzyme incubated only with solvents.
The first series of experiments determined the effect of the dialkyl 2-chlorophenyl (and 4-chlorophenyl) phosphates on both AcChase and BuChase. None of the compounds had any inhibitory effect on AcChase (See Table 1). In Table 1, AcChase was incubated with 100 μM of the indicated phenyl phosphate for 60 minutes at 25° C. and then assayed as described above. Results were expressed as the % activity relative to enzyme incubated with solvent ±SD (standard deviation).
For orientation: Ellman's reagent forms a yellow product with free thiols.

In assay [4] the target is T1, butyrylcholinesterase. The assay can be described thus: Phosphorylation of BuChase by 14C-labeled inhibitor, autoradiography. More on the design: species or system horse. The following applies: 14C-labeled compound, native gel. As to the method: The cholinesterases were pre-incubated with ^14C-di-ethyl-2-chlorophenyl phosphate and then fractionated by native gel electrophoresis as described above. The proteins were fixed in the gel with 10% acetic acid/30% methanol. The fixative was removed and replaced with 100 mL of EN^3HANCE. The gel was incubated for 60 minutes at room temperature with gentle agitation and then placed in 5% PEG and incubated for 30 minutes at room temperature with gentle agitation. The gel was then dried down on a piece of 3 MM filter paper, exposed to X-ray film at −80° C. for 2 weeks, and then developed.

Assay [5] deals with T4, butyrylcholinesterase (from horse serum) (Equus caballus, UniProt P81908).
T4 construct: butyrylcholinesterase (from horse serum); purchased Sigma; host or cells: horse serum (natural source)
T4 sequence (P81908 whole entry): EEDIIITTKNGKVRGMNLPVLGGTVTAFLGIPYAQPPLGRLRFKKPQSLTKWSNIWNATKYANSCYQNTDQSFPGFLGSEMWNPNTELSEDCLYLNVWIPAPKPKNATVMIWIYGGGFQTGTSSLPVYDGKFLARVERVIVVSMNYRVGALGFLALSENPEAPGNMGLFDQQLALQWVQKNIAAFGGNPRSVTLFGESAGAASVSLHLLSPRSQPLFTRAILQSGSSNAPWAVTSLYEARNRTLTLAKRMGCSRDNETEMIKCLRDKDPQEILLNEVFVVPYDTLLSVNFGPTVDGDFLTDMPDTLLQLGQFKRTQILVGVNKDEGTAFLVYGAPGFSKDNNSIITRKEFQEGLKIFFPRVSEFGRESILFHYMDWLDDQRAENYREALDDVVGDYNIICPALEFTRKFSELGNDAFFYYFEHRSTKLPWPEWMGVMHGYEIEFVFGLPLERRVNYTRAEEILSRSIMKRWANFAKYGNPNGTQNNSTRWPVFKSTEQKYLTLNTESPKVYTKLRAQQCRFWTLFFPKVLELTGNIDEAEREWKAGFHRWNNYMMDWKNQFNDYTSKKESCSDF
The assay can be described thus: Rates of inactivation of butyrylcholinesterase, Ellman assay. It is filed as biochemical. The following applies: for k, rate constant of inactivation of butyrylcholinesterase ± S.E.M: 100 nM inhibitor, 25° C.; for effect on BuChase activity under standard conditions: standard conditions (100 nM inhibitor). As for the experimental part:
as §4, §1, §5
. […] In Table 2, BuChase was incubated for increasing periods of time at 25° C. with 100 nM inhibitor then assayed for activity as described above. Rate constants were calculated from a plot of enzyme activity vs. time of inhibitor exposure. […]. Slopes were calculated by linear regression analysis.

The target in assay [6] is T4, butyrylcholinesterase (from horse serum). The assay is described as above. The class given is biochemical. As to conditions: inhibitor at 10^−4M.

T1 sequence (P81908 whole entry): as above
T3 sequence (O42275 24-633): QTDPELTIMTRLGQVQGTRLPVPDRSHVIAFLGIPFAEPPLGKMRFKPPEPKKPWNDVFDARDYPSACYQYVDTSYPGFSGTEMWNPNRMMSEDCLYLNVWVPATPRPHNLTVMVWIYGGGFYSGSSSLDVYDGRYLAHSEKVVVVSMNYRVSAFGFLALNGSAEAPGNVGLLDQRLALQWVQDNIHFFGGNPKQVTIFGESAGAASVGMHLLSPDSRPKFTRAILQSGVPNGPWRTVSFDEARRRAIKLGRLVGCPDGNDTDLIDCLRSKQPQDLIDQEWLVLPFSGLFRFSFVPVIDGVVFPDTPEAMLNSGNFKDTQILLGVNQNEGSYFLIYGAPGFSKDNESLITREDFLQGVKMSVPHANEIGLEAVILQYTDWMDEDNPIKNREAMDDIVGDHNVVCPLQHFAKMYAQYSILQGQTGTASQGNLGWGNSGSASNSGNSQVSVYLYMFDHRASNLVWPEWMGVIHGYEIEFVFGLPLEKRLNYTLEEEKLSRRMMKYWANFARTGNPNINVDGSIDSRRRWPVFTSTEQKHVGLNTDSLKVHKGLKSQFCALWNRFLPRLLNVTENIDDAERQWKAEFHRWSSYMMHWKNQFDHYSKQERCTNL
T2 sequence (O42275 24-633): as above

Turning to `CCCCCCNP(=O)(OCCCC)Oc1ccccc1Cl` (stereo not shown), on butyrylcholinesterase [1], the “Change in Absorbance at 412 nm/Minute (Normalized)” value (shortened to “Change in Absorbance … (Normalized)”) is listed as 1.024 and the “Change in Absorbance at 412 nm/Minute (Not Normalized)” value (shortened to “Change … (Not Normalized)”) was 0.688.

On to `CCCCOP(=O)(OCCCC)Oc1cccc([N+](=O)[O-])c1`, for which the “% Inhibition of BuChase after 2 minutes” value at butyrylcholinesterase [1] (standard conditions (10^−7M), 2 minutes) is given as 100%. Moreover, the “% Inhibition of BuChase, immediate” value on butyrylcholinesterase [1] (standard conditions (10^−7M)) came to 83%.

For `CCCCOP(=O)(OCCCC)Oc1ccc(Cl)cc1` [drawing 55], on butyrylcholinesterase [1], the “Change in Absorbance … (Normalized)” value is on record as 0.338 and the “Change … (Not Normalized)” value is 0.227.

Take `CCOP(=O)(OCC)Oc1ccccc1Cl` [Di-ethyl-, 2-Chlorophenyl diethyl phosphate]: at acetylcholinesterase, the “effect on AcChase activity, native gel (FIG. 1)” value is recorded as “no effect”. Besides, the “effect on BuChase activity, native gel (FIG. 2A)” value on butyrylcholinesterase [2] is listed as “nearly completely inhibited”. Moreover, the “% Activity ± SD (acetylcholinesterase activity relative to enzyme incubated with solvent)” value in assay [3] was 96.77 ± 0.019%. Further, the “covalent modification of BuChase (FIG. 2B)” value at butyrylcholinesterase [4] is given as “covalently modified”. The “k, rate constant of inactivation of butyrylcholinesterase ± S.E.M” value (shortened to “k, rate constant”) in assay [5] was 6.64 ± 2.1 min^−1 × 10^−2.

For `CCCCP(=O)(Oc1ccccc1Cl)Oc1ccccc1Cl`, on butyrylcholinesterase [1], the “Change in Absorbance … (Normalized)” value is listed as 0.48 and the “Change … (Not Normalized)” value came to 0.32.

In the case of `CCCCCOP(=O)(OCCCCC)Oc1ccccc1Cl` [Di-n-pentyl-, 2-Chlorophenyl di-n-pentyl phosphate], the activity at 100 µM in assay [3] (read-out: % Activity ± SD (acetylcholinesterase activity relative to enzyme incubated with solvent)) came to 101.7 ± 0.03%. Besides, the “k, rate constant” value in assay [5] is reported as 30.44 ± 3.3 min^−1 × 10^−2.

Regarding `CCCCOP(=O)(OCCCC)Oc1ccccc1Br`, at butyrylcholinesterase [1], the “Change in Absorbance … (Normalized)” value amounted to 1.366 and the “Change … (Not Normalized)” value stood at 0.918.

`CCCCOP(=S)(OCCCC)Oc1ccccc1Cl`: on butyrylcholinesterase [1] (compound at 10^−4 M), the “% inhibition of BuChase” value is on record as 14.6%. For the same compound, the “inhibitory under standard conditions” value against butyrylcholinesterase [1] (standard conditions (10^−7M)) was “Not Inhibitory”.

Take `CCCCOP(=O)(OCCCC)Oc1cccc(Br)c1`: at butyrylcholinesterase [1], the “Change in Absorbance … (Normalized)” value came out at 6.220 and the “Change … (Not Normalized)” value was determined as 4.18.

On to `CC(C)COP(=O)(OCC(C)C)Oc1ccccc1Cl` [Di-iso-butyl-, Di-i-butyl 2-Chlorophenyl phosphate], for which the “% Activity ± SD (acetylcholinesterase activity relative to enzyme incubated with solvent)” value in assay [3] is reported as 96.18 ± 0.023%. Besides, in assay [5], the “k, rate constant” value was 60.83 ± 5.8 min^−1 × 10^−2.

As to `CCCCOP(=O)(OCCCC)Oc1cccc(F)c1`, at butyrylcholinesterase [1], the “Change in Absorbance … (Normalized)” value is on record as 0.696 and the “Change … (Not Normalized)” value amounted to 0.468.

With `CCCCP(=O)(CCCC)Oc1ccccc1Cl`, on butyrylcholinesterase [1], the “Change in Absorbance … (Normalized)” value amounted to 1.018 and the “Change … (Not Normalized)” value was 0.684.

With `CCCCOP(=O)(OCCCC)Oc1ccccc1C`, the type of inhibition result on butyrylcholinesterase [1] is reported as “Reversible inhibitor: Ki = 2.1 μM”.

In the case of `CCCCOP(=O)(OCCCC)Oc1ccc(Cl)cc1` [Di-n-butyl-(4Cl), Di-n-butyl 4-chlorophenyl phosphate], the “% Activity ± SD (acetylcholinesterase activity relative to enzyme incubated with solvent)” value in assay [3] was 97.61 ± 0.006%. Besides, the “k, rate constant” value in assay [5] is listed as 13.01 ± 2.0 min^−1 × 10^−2.

Take `CCCCOP(=O)(OCCCC)Oc1ccccc1F`: on butyrylcholinesterase [1], the “Change in Absorbance … (Normalized)” value is 2.604 and the “Change … (Not Normalized)” value was 1.75.

Take `CCCCOP(=O)(OCCCC)Oc1ccc(Br)cc1`: at butyrylcholinesterase [1], the “Change in Absorbance … (Normalized)” value is recorded as 0.737 and the “Change … (Not Normalized)” value is reported as 0.495.

For `CCCCOP(=O)(OCCCC)Oc1ccc([N+](=O)[O-])cc1`, on butyrylcholinesterase [1] (standard conditions (10^−7M)), the “% Inhibition of BuChase, immediate” value is on record as 100% Inhibition (Immediate under standard conditions).

Take `CCCOP(=O)(OCCC)Oc1ccccc1Cl` [Di-n-propyl-, 2-Chlorophenyl di-n-propyl phosphate]: in assay [3], the “% Activity ± SD (acetylcholinesterase activity relative to enzyme incubated with solvent)” value turned out to be 97.38 ± 0.028%. Further, the “k, rate constant” value in assay [5] turned out to be 20.21 ± 2.2 min^−1 × 10^−2.

Broadly, the inhibition is the percentage by which the read-out fell short of the control. As to `CCCCOP(=O)(Oc1ccc(Cl)cc1Cl)Oc1ccc(Cl)cc1Cl`, the inhibition at 100 µM on butyrylcholinesterase [1] (compound at 10^−4 M) amounted to 63.4%. Also, the “inhibitory under standard conditions” value against butyrylcholinesterase [1] (standard conditions (10^−7M)) is recorded as “Not inhibitory”.

`COP(=O)(OC)Oc1ccccc1Cl` [Di-methyl-, 2-Chlorophenyl dimethyl phosphate]: the “% Activity ± SD (acetylcholinesterase activity relative to enzyme incubated with solvent)” value in assay [3] worked out at 101.9 ± 0.019%. In assay [5], the “effect on BuChase activity under standard conditions” value is listed as “no effect”. The “% Inhibition of butyrylcholinesterase” value in assay [6] amounted to 48.9% Inhibition.

On to `CC(C)OP(=O)(Oc1ccccc1Cl)OC(C)C` [Di-iso-propyl-, 2-Chlorophenyl di-i-propyl phosphate], for which, in assay [3], the “% Activity ± SD (acetylcholinesterase activity relative to enzyme incubated with solvent)” value is reported as 97.82 ± 0.045%. Besides, in assay [5], the “effect on BuChase activity under standard conditions” value is recorded as “no effect”. The “% Inhibition of butyrylcholinesterase” value in assay [6] is given as 85.3% Inhibition.

As to `CCCCCCP(=O)(OCCCC)Oc1ccccc1Cl` (stereo not shown), on butyrylcholinesterase [1], the “Change in Absorbance … (Normalized)” value stood at 14.94 and the “Change … (Not Normalized)” value is on record as 10.04.

`O=P(Oc1ccccc1)(Oc1ccccc1)Oc1ccccc1Cl`: the inhibition at 100 µM on butyrylcholinesterase [1] (compound at 10^−4 M) is 29.4%. Moreover, the “inhibitory under standard conditions” value at butyrylcholinesterase [1] (standard conditions (10^−7M)) is “Not inhibitory”.

Consider `CCCCCCNP(=O)(Oc1ccccc1Cl)Oc1ccccc1Cl`, for which the inhibition at 100 µM at butyrylcholinesterase [1] (compound at 10^−4 M) amounted to 73.9%. For the same compound, at butyrylcholinesterase [1] (standard conditions (10^−7M)), the “inhibitory under standard conditions” value was “Not inhibitory”.

Take `CCCCOP(=O)(OCCCC)Oc1ccc(Cl)cc1Cl`: the “% inhibition of BuChase after 1 minute” value on butyrylcholinesterase [1] (standard conditions (10^−7M), 1 minute) is reported as 92% inhibition after 1 minute under standard conditions.
